Patent publication US12577587B2 (priority 2009, dated 2026)
“Also recorded” adds a separate entry of the source.

Assays:
Assay type in all cases: cell-based, human
KBM7 cells [1] = test system: KBM7 cells
KBM7 cells [2] = test system: KBM7 cells; remark: listed apart in the source
KBM7 cells [3] = test system: KBM7 cells; remark: listed apart in the source

With `Cc1ccc(NC(=O)c2ccc(CN3CCN(C)CC3)cc2)cc1Nc1nccc(-c2cccnc2)n1` [Gleevec, imatinib] as the compound, how does the “sensitivity to Gleevec (apoptosis)” value (KBM7 cells [1]) read?
Its value is “very sensitive; also recorded: sensitive”.

Which Cell viability (KBM7 cells [2]) does the source give for TRAIL here?
The Cell viability was “decreased dramatically”.

polybrene was tested. Which infection efficiency (KBM7 cells [3]) did it give?
The infection efficiency was 33%.

How did the infection efficiency (KBM7 cells [3]) turn out when protamine sulphate was run?
The infection efficiency was 44%.
